One assay deals with SK-MEL-2. The experiment in a line: Cytotoxicity in SK-MEL-2 (human melanoma) cell line. In kind it is functional. The note with it: read-out: ED50 (the source's name).
The next assay has as its system A549. The experiment in a line: Cytotoxicity in A549 (human carcinoma) cell line. In kind it is functional. The note with it: read-out: ED50 (the source's name).
In another assay the test system is CCRF S-180. The experiment in a line: Cytotoxicity in S-180 (murine sarcoma) cell was determined. In kind it is functional, cell-based. The note with it: Mus musculus.
The target in another assay is Tubulin. The experiment in a line: Inhibition of tubulin polymerization in S180 (murine sarcoma) cells. In kind it is functional, cell-based. The note with it: ccrf s-180.
Assay [1] in a line: Inhibition of DNA topoisomerase II in S180 (murine sarcoma) cells. In kind it is functional, cell-based, Mus musculus. The note with it: ccrf s-180.

SMILES strings stand for the structures. pIC50: −log10 of the molar value. In brackets after ≈: the same amount, converted by molar mass.

In the case of `CCCC/C=C\C/C=C\C/C=C\C/C=C\CCCC(=O)Oc1c(OC)cc([C@@H]2c3cc4c(cc3C[C@H]3COC(=O)[C@@H]32)OCO4)cc1OC`, the EC50 in the assay on SK-MEL-2 was determined as 0.184 µg/mL (≈ 0.28 µM); in the assay on A549, 0.91 µg/mL (≈ 1.39 µM).
On the same counts, the results for `CCCCCC/C=C\CCCCCCCCCC(=O)Oc1c(OC)cc([C@@H]2c3cc4c(cc3C[C@H]3COC(=O)[C@@H]32)OCO4)cc1OC` are 0.057 µg/mL (≈ 0.0878 µM) and 0.335 µg/mL (≈ 0.516 µM).
On the same counts, the results for `CCCCCCCCCCCCCCCCCCCC(=O)Oc1c(OC)cc([C@@H]2c3cc4c(cc3C[C@H]3COC(=O)[C@@H]32)OCO4)cc1OC` are over 5 µg/mL and over 5 µg/mL.
On the same counts, the results for `CCCCCCC/C=C/CCCCCCCCCC(=O)Oc1c(OC)cc([C@@H]2c3cc4c(cc3C[C@H]3COC(=O)[C@@H]32)OCO4)cc1OC` are 1.13 µg/mL (≈ 1.7 µM) and 1.66 µg/mL (≈ 2.5 µM).
Consider `CCCCCCCC/C=C\CCCCCCCC(=O)Oc1c(OC)cc([C@@H]2c3cc4c(cc3C[C@H]3COC(=O)[C@@H]32)OCO4)cc1OC`, for which the figures for the EC50 with SK-MEL-2 and in the assay on A549 were 0.159 µg/mL (≈ 0.245 µM) and 0.179 µg/mL (≈ 0.276 µM), respectively.
Consider `CC/C=C\C/C=C\C/C=C\CCCCCCCC(=O)Oc1c(OC)cc([C@@H]2c3cc4c(cc3C[C@H]3COC(=O)[C@@H]32)OCO4)cc1OC`, for which the values for the EC50 with SK-MEL-2 and with A549 were 0.048 µg/mL (≈ 0.0744 µM) and 0.084 µg/mL (≈ 0.13 µM), respectively.
On the same counts, the results for `CC/C=C\C/C=C\C/C=C\C/C=C\C/C=C\C/C=C\CCC(=O)Oc1c(OC)cc([C@@H]2c3cc4c(cc3C[C@H]3COC(=O)[C@@H]32)OCO4)cc1OC` are 0.035 µg/mL (≈ 0.0504 µM) and 0.119 µg/mL (≈ 0.171 µM).
In the case of `COc1cc([C@@H]2c3cc4c(cc3C[C@H]3COC(=O)[C@@H]32)OCO4)cc(OC)c1OC` [DESOXYPODOPHYLLOTOXIN], the EC50 was determined as 0.009 µg/mL (≈ 0.0226 µM) in the assay with SK-MEL-2 and 0.012 µg/mL (≈ 0.0301 µM) with A549.
Turning to `CCCCCC/C=C/CCCCCCCCCC(=O)Oc1c(OC)cc([C@@H]2c3cc4c(cc3C[C@H]3COC(=O)[C@@H]32)OCO4)cc1OC`, the EC50 with SK-MEL-2 came out at 0.253 µg/mL (≈ 0.39 µM); with A549, 1.01 µg/mL (≈ 1.56 µM).
On the same counts, the results for `CCCCCCCC/C=C\CCCCCCCCCCCC(=O)Oc1c(OC)cc([C@@H]2c3cc4c(cc3C[C@H]3COC(=O)[C@@H]32)OCO4)cc1OC` are 0.561 µg/mL (≈ 0.796 µM) and 2.71 µg/mL (≈ 3.84 µM).
In the case of `CCCCCCCCCCCCCCCCCC(=O)Oc1c(OC)cc([C@@H]2c3cc4c(cc3C[C@H]3COC(=O)[C@@H]32)OCO4)cc1OC`, the EC50 is over 5 µg/mL in the assay on SK-MEL-2 and 2.67 µg/mL (≈ 4.1 µM) with A549.
On the same counts, the results for `CCCCCCCCCCCCCCCCCCCCCC(=O)Oc1c(OC)cc([C@@H]2c3cc4c(cc3C[C@H]3COC(=O)[C@@H]32)OCO4)cc1OC` are over 5 µg/mL and over 5 µg/mL.
As for `CCCCCCCCCCCCCCCC(=O)Oc1c(OC)cc([C@@H]2c3cc4c(cc3C[C@H]3COC(=O)[C@@H]32)OCO4)cc1OC`, the figures for the EC50 in the assay with SK-MEL-2 and in the assay with A549 were 0.29 µg/mL (≈ 0.466 µM) and 0.268 µg/mL (≈ 0.43 µM), respectively.
For `CCCCCC/C=C\CCCCCCCC(=O)Oc1c(OC)cc([C@@H]2c3cc4c(cc3C[C@H]3COC(=O)[C@@H]32)OCO4)cc1OC`, the values for the EC50 with SK-MEL-2 and in the assay with A549 were 0.065 µg/mL (≈ 0.105 µM) and 0.733 µg/mL (≈ 1.18 µM), respectively.
For the compound `CCCCC/C=C\C/C=C\C/C=C\CCCCC(=O)Oc1c(OC)cc([C@@H]2c3cc4c(cc3C[C@H]3COC(=O)[C@@H]32)OCO4)cc1OC`, the EC50 turned out to be 0.041 µg/mL (≈ 0.0636 µM) with SK-MEL-2 and 0.085 µg/mL (≈ 0.132 µM) in the assay with A549.
On the same counts, the results for `CCCCC/C=C/C/C=C/CCCCCCCC(=O)Oc1c(OC)cc([C@@H]2c3cc4c(cc3C[C@H]3COC(=O)[C@@H]32)OCO4)cc1OC` are 0.11 µg/mL (≈ 0.17 µM) and 0.259 µg/mL (≈ 0.4 µM).
On the same counts, the results for `CCCCCCCC/C=C\CCCCCCCCCC(=O)Oc1c(OC)cc([C@@H]2c3cc4c(cc3C[C@H]3COC(=O)[C@@H]32)OCO4)cc1OC` are over 5 µg/mL and over 5 µg/mL.
On the same counts, the results for `CCCCCCCC/C=C/CCCCCCCC(=O)Oc1c(OC)cc([C@@H]2c3cc4c(cc3C[C@H]3COC(=O)[C@@H]32)OCO4)cc1OC` are 0.55 µg/mL (≈ 0.848 µM) and 0.367 µg/mL (≈ 0.566 µM).
Take `CCCC/C=C\C/C=C\CCCCCCCCCC(=O)Oc1c(OC)cc([C@@H]2c3cc4c(cc3C[C@H]3COC(=O)[C@@H]32)OCO4)cc1OC`: the figures for the EC50 in the assay on SK-MEL-2 and with A549 were 0.347 µg/mL (≈ 0.525 µM) and 0.87 µg/mL (≈ 1.32 µM), respectively.
For orientation: pIC50 means −log10 of the IC50, conventionally taken in molar units. A low value points to a large IC50. `COc1cc([C@@H]2c3cc4c(cc3C[C@H]3COC(=O)[C@@H]32)OCO4)cc(OC)c1O` [4'-DEMETHYLDEOXYPODOPHYLLOTOXIN]: the EC50 with SK-MEL-2 was found to be 0.015 µg/mL (≈ 0.039 µM); in the assay on A549 it was 0.023 µg/mL (≈ 0.0598 µM). Moreover, the pIC50 was 7.52 in the assay with CCRF S-180, 5.70 against Tubulin and 4.61 in assay [1].
Regarding `CCCCC/C=C\C/C=C\CCCCCCCC(=O)Oc1c(OC)cc([C@@H]2c3cc4c(cc3C[C@H]3COC(=O)[C@@H]32)OCO4)cc1OC`, the EC50 in the assay on SK-MEL-2 is 0.03 µg/mL (≈ 0.0464 µM); with A549, 0.09 µg/mL (≈ 0.139 µM).

The record behind these values is ChEMBL document CHEMBL1136145, “Antitumor activity of unsaturated fatty acid esters of 4'-demethyldeoxypodophyllotoxin” (Bioorg Med Chem Lett, 2003).
